Literature values, collected in patent US20230149481A1, “COMBINATION THERAPY FOR INFLAMMATORY BOWEL DISEASE” (Servatus Ltd, priority 2020, published 2023).

Tested on: DSS-induced colitis
Conditions: previous tests in the same DSS-induced colitis model, compared with the Group 5 treatment of Example 1

Row | SMILES | in-life disease score
1 | C[C@]12C=CC(=O)C=C1CC[C@@H]1[C@@H]2[C@@H](O)C[C@@]2(C)[C@H]1CC[C@]2(O)C(=O)CO [prednisolone] | None of these drugs statistically improved the in-life disease score to the extent observed
2 | O=C(O)c1cc(/N=N/c2ccc(S(=O)(=O)Nc3ccccn3)cc2)ccc1O [sulfasalazine] | None of these drugs statistically improved the in-life disease score to the extent observed
